These results are taken from patent US20080234203A1, “Use of Substances Having Oxytocin Antagonistic Properties” (Ferring BV, priority 2004, published 2008).

Experiment [1] relates to isolated rat uterine artery. Kind of experiment: In vitro contractility of isolated rat uterine artery from nonpregnant, midpregnant and late pregnant rats. The source says:
The X axis-represents the oxytocin concentration {log M} and the Y axis represents % of phenylephrine-induced contraction. […] The following pD2 values were obtained, non-pregnant (9.32±0.41, n=7), midpregnant (7.46±0.13, n=6) and late pregnant (7.87±0.39, n=6). It could be speculated that the generally lower sensitivity of uterine vessels during pregnancy is related to eventually higher local oxytocin concentrations.
(§1) Nonpregnant or timed-pregnant Sprague-Dawley rats (of a 22-day pregnancy, with day 1 being the day when the sperm plug was observed) were obtained from Charles River Laboratories (Houston, Tex.). In some studies Spontaneously Hypertensive Rats (SHR) and their respective normatensive controls (WKY) were used. Rats were killed by means of carbon dioxide inhalation on day 14 (midterm pregnant) or day 22 before labor (term pregnant) or during the estrus cycle (nonpregnant). […] Contractions of uterine vascular tissues (cut into rings) were recorded and stored on computer with the DI-220 (DataQ Instruments Inc, Akron, Ohio) data acquisition system. […]
(§2) Data were analyzed by using Windaq/200 (DataQ Instruments Inc) software. Integral activity as an area under the tracing of vascular contractions for 10 minutes (expressed as milligrams per second) before (basal activity) and after the addition of each concentration of the agent was calculated and compared with basal activity (as percentage change). […] The concentration of oxytocin causing 50% of the maximal effect was determined, and the −log50 of the half maximal effect and the area under the concentration-response curves were calculated and compared. The data are expressed as mean ± SD. […]

The test system of experiment [2] is isolated uterine artery, femoral artery, carotoid artery and aorta. Nature of the experiment: In vitro contractility of isolated arteries from non-pregnant SHR rats. Also on record: species or system spontaneous hypertensive (SHR) rats. Particulars: uterine arteries compared with femoral artery.
Text: as §1, §2

The test system is the same in experiment [3]. Nature of the experiment: In vitro contractility of isolated arteries from non-pregnant WKY rats. Further details: species or system Wistar (WKY) rats.
Text: as §1, §2

For experiment [4], the system named is pregnant rats. Kind of experiment: Blood pressure measurements in pregnant rats (tail cuff). Particulars: 200 μg/d, gestational day 19 to 22 and pp1 to pp7. The format is in vivo, rat. The procedure:
The X axis represents the time of pregnancy (gestational age), and the Y axis represents the systolic blood pressure (mmHg). Barusiban (200 μg/d), atosiban (200 μg/d) and control (saline) (200 μg/d) were administered to pregnant rats from gestational day 19 to 22 and during pp1 to pp7 (pp=post partum).
Animals. Adult nulliparous pregnant rats (300-325 g body weight) were purchased from Harlan Sprague Dawley, Inc (Indianapolis, Ind.), and were received in the animal facilities on day 16 of pregnancy (with day 1 being the day of the positive sperm smear result). All animals were given free access to food and water.
Blood pressure measurement. Starting on day 19 of pregnancy systolic blood pressure was measured daily or every other day with a pneumatic tail cuff device (NARCO Biosystems, Inc, Austin, Tex.) in animals that had been warmed in a metal chamber maintained at approximately 30° C. Blood pressure values obtained from 3 consecutive measurements were averaged and recorded as the pressure for a given rat at each point. Measurements of systolic blood pressure of all animals were carried out until delivery and for seven days post partum (pp7) All animals delivered on day 22 of gestation, the expected day of delivery. Three groups of animals were studied: Group 1. […]
Statistical analysis. Mean +/− SEM values were calculated for blood pressure levels on each day of pregnancy and post partum. […]

Consider `CC[C@H](C)[C@@H]1NC(=O)[C@H](Cc2ccc(O)cc2)NC(=O)[C@@H](N)CSSC[C@@H](C(=O)N2CCC[C@H]2C(=O)N[C@@H](CC(C)C)C(=O)NCC(N)=O)NC(=O)[C@H](CC(N)=O)NC(=O)[C@H](CCC(N)=O)NC1=O` [oxytocin], for which the “pD2 (oxytocin-induced contraction, % of phenylephrine-induced contraction)” value in experiment [1] (uterine artery of late pregnant rats, n=6) was 7.87±0.39; in experiment [1] (uterine artery of midpregnant rats, n=6), 7.46±0.13; in experiment [1] (uterine artery of non-pregnant rats, n=7), 9.32±0.41. The “oxytocin sensitivity (contraction dose/response)” value was “highest sensitivity” in experiment [2]; “outstanding high sensitivity” in experiment [3] (uterine arteries compared with femoral artery, carotoid artery and aorta, non-pregnant WKY rats); “higher sensitivity” in experiment [3] (uterine arteries of non-pregnant WKY rats compared with SHR rats).

For the compound “C^4,6, S^1-cyclo [Barusiban, C^4,6, S^1-cyclo [N-(3-sulfanylpropanoyl) -D-tryptophyl-L -isoleucyl-L-alloisoleucyl-L-asparaginyl-L-2-aminobutanoyl-N-methyl-L-ornithinol]]”, in experiment [4], the systolic blood pressure result is on record as “beneficial drop in systolic blood pressure around birth”.
